{
  "source": "patent US20250204564A1",
  "about": "“TASTE MODIFYING COMPOSITIONS AND USES THEREOF” (Firmenich Incorporated, priority 2022, published 2025)",
  "format_in_all_cases": "in vivo",
  "key": {"Bitterness of Green Tea": {"test_system": "Bitterness of Green Tea", "test": "Blinded paired taste comparison, bitterness of green tea extract", "settings": "39 panelists; for C Chosen: panelists choosing comparative sample C as highest bitterness; for Test Sample Chosen: panelists choosing test sample as highest bitterness", "method": "(§1) A series of test samples and a comparative sample were prepared. The comparative sample (C) contained green tea extract in water at a concentration of 0.30 wt %. Two test samples were prepared. Each test sample contained green tea extract in water at a concentration of 0.30 wt %. In addition, one test sample (S1) also contained TM1 at 20 ppm, and another sample (S2) contained TM1 at 40 ppm. Sample pairs, a test sample and a comparative sample, were presented in a blinded fashion to panelists, they were asked to taste the samples and identify the sample with the highest bitterness."}, "Bitterness of Coffee": {"test_system": "Bitterness of Coffee", "test": "Blinded paired taste comparison, bitterness of instant coffee", "settings": "sample S1: TM1 10 ppm in instant coffee (Taster's Choice French Roast) vs C, 33 panelists", "method": "A test sample and a comparative sample were prepared. The comparative sample (C) instant coffee (Taster's Choice French Roast, acquired in the United States) made according to the directions. The test sample (S1) consisted of instant coffee (Taster's Choice French Roast, acquired in the United States) made according to the directions and TM1 at a concentration of 10 ppm. Sample pairs, a test sample and a comparative sample, were presented in a blinded fashion to panelists, they were asked to taste the samples and identify the sample with the highest bitterness."}, "[1]": {"test_system": "Bitterness of Potato Protein", "test": "Blinded paired taste comparison, bitterness of potato protein", "settings": "sample S1: TM1 10 ppm + potato protein 4 wt % in water vs C, 39 panelists", "method": "A test sample and a comparative sample were prepared. The comparative sample (C) contained potato protein in water at a concentration of 4 wt %. The test sample (S1) contained potato protein in water at a concentration of 4 wt % and TM1 at a concentration of 10 ppm. Sample pairs, a test sample and a comparative sample, were presented in a blinded fashion to panelists, they were asked to taste the samples and identify the sample with the highest bitterness."}, "[2]": {"test_system": "Bitterness of Guaifenesin", "test": "Blinded paired taste comparison, bitterness of guaifenesin", "settings": "39 panelists", "method": "A test sample and a comparative sample were prepared. The comparative sample (C) contained guaifenesin in water at a concentration of 24 mM. The test sample (S1) contained guaifenesin in water at a concentration of 24 mM and TM1 at a concentration of 50 ppm. Sample pairs, a test sample and a comparative sample, were presented in a blinded fashion to panelists, they were asked to taste the samples and identify the sample with the highest bitterness."}, "Bitterness of Ginseng": {"test_system": "Bitterness of Ginseng", "test": "Blinded paired taste comparison, bitterness of ginseng", "settings": "sample S1: TM1 10 ppm + ginseng 0.036 wt % in water vs C, 39 panelists", "method": "A test sample and a comparative sample were prepared. The comparative sample (C) contained ginseng in water at a concentration of 0.036 wt %. The test sample (S1) contained ginseng in water at a concentration of 0.036 wt % and TM1 at a concentration of 10 ppm. Sample pairs, a test sample and a comparative sample, were presented in a blinded fashion to panelists, they were asked to taste the samples and identify the sample with the highest bitterness."}, "Bitterness of Saccharin": {"test_system": "Bitterness of Saccharin", "test": "Blinded paired taste comparison, bitterness of saccharin", "settings": "sample S1: TM1 10 ppm + saccharin 1000 ppm in water vs C, 33 panelists", "method": "A test sample and a comparative sample were prepared. The comparative sample (C) contained saccharin in water at a concentration of 1000 ppm. The test sample (S1) contained saccharin in water at a concentration of 1000 ppm and TM1 at a concentration of 10 ppm. Sample pairs, a test sample and a comparative sample, were presented in a blinded fashion to panelists, they were asked to taste the samples and identify the sample with the highest bitterness."}, "[3]": {"test_system": "Bitterness of Pea Protein", "test": "Blinded paired taste comparison, bitterness of pea protein", "settings": "sample S1: TM1 10 ppm + pea protein 4 wt % in water vs C, 30 panelists", "method": "A test sample and a comparative sample were prepared. The comparative sample (C) contained pea protein in water at a concentration of 4 wt %. The test sample (S1) contained pea protein in water at a concentration of 4 wt % and TM1 at a concentration of 10 ppm. Sample pairs, a test sample and a comparative sample, were presented in a blinded fashion to panelists, they were asked to taste the samples and identify the sample with the highest bitterness."}, "[4]": {"test_system": "Bitterness of Acetaminophen", "test": "Blinded paired taste comparison, bitterness of acetaminophen", "settings": "for C Chosen: panelists choosing comparative sample C as highest bitterness; for Test Sample Chosen: panelists choosing test sample as highest bitterness", "method": "as §1, with “acetaminophen” for “green tea extract”, “90 mM. Four” for “0.30 wt %. Two”, “90 mM.” for “0.30 wt %.”, “100” for “20”, “ppm,” for “ppm, and”, “50 ppm, another sample (S3) contained TM1 at 25 ppm, and another sample (S4) contained TM1 at 10” for “40”"}, "[5]": {"test_system": "Bitterness of Grapefruit Juice", "test": "Blinded paired taste comparison, bitterness of grapefruit juice", "settings": "39 panelists", "method": "A test sample and a comparative sample were prepared. The comparative sample (C) consisted of grapefruit juice. The test sample (S1) consisted of grapefruit juice and TM1 at a concentration of 10 ppm. Sample pairs, a test sample and a comparative sample, were presented in a blinded fashion to panelists, they were asked to taste the samples and identify the sample with the highest bitterness."}, "Bitterness of Caffeine": {"test_system": "Bitterness of Caffeine", "test": "Blinded paired taste comparison, bitterness of caffeine", "settings": "sample S1: TM1 10 ppm + caffeine 0.08 wt % in water vs C, 39 panelists", "method": "A test sample and a comparative sample were prepared. The comparative sample (C) contained caffeine in water at a concentration of 0.08 wt %. The test sample (S1) contained caffeine in water at a concentration of 0.08 wt % and TM1 at a concentration of 10 ppm. Sample pairs, a test sample and a comparative sample, were presented in a blinded fashion to panelists, they were asked to taste the samples and identify the sample with the highest bitterness."}, "[6]": {"settings": "sample S1: TM1 20 ppm + green tea extract 0.30 wt % in water vs C"}, "[7]": {"settings": "sample S2: TM1 40 ppm + green tea extract 0.30 wt % in water vs C"}, "[8]": {"settings": "panelists choosing comparative sample C as highest bitterness"}, "[9]": {"settings": "panelists choosing test sample as highest bitterness"}, "[10]": {"settings": "sample S2: TM1 50 ppm + acetaminophen 90 mM in water vs C, 48 panelists"}, "[11]": {"settings": "sample S3: TM1 25 ppm + acetaminophen 90 mM in water vs C, 45 panelists"}, "[12]": {"settings": "sample S4: TM1 10 ppm + acetaminophen 90 mM in water vs C, 45 panelists"}},
  "data": [
    {"smiles": "CC(=O)c1cc2c(cc1NC(=O)CN1CCN(C(C)=O)CC1)OCCO2", "note": "[TM1, N-(7-acetyl-2,3-dihydrobenzo[b][1,4]dioxin-6-yl)-2-(4-acetylpiperazin-1-yl)acetamide]", "values": [
      {"measurement": "C Chosen", "setting": "Bitterness of Green Tea; [6]", "value": 28},
      {"measurement": "C Chosen", "setting": "Bitterness of Green Tea; [7]", "value": 26},
      {"measurement": "Test Sample Chosen", "setting": "Bitterness of Green Tea; [6]", "value": 11},
      {"measurement": "Test Sample Chosen", "setting": "Bitterness of Green Tea; [7]", "value": 13},
      {"measurement": "C Chosen", "setting": "Bitterness of Coffee; [8]", "value": 27},
      {"measurement": "Test Sample Chosen", "setting": "Bitterness of Coffee; [9]", "value": 6},
      {"measurement": "C Chosen", "setting": "[1]; [8]", "value": 26},
      {"measurement": "Test Sample Chosen", "setting": "[1]; [9]", "value": 13},
      {"measurement": "C Chosen", "setting": "[2]; panelists choosing comparative sample C as highest bitterness, sample S1: TM1 50 ppm + guaifenesin 24 mM in water vs C", "value": 32},
      {"measurement": "Test Sample Chosen", "setting": "[2]; panelists choosing test sample as highest bitterness, sample S1: TM1 50 ppm + guaifenesin 24 mM in water vs C (guaifenesin 24 mM)", "value": 7},
      {"measurement": "C Chosen", "setting": "Bitterness of Ginseng; [8]", "value": 26},
      {"measurement": "Test Sample Chosen", "setting": "Bitterness of Ginseng; [9]", "value": 13},
      {"measurement": "C Chosen", "setting": "Bitterness of Saccharin; [8]", "value": 24},
      {"measurement": "Test Sample Chosen", "setting": "Bitterness of Saccharin; [9]", "value": 9},
      {"measurement": "C Chosen", "setting": "[3]; [8]", "value": 20},
      {"measurement": "Test Sample Chosen", "setting": "[3]; [9]", "value": 10},
      {"measurement": "C Chosen", "setting": "[4]; sample S1: TM1 100 ppm + acetaminophen 90 mM in water vs C, 31 panelists", "value": 27},
      {"measurement": "C Chosen", "setting": "[4]; [10]", "value": 39},
      {"measurement": "C Chosen", "setting": "[4]; [11]", "value": 33},
      {"measurement": "C Chosen", "setting": "[4]; [12]", "value": 31},
      {"measurement": "Test Sample Chosen", "setting": "[4]; sample S1: TM1 100 ppm + acetaminophen 90 mM in water vs C (acetaminophen 90 mM), 31 panelists", "value": 4},
      {"measurement": "Test Sample Chosen", "setting": "[4]; [10]", "value": 9},
      {"measurement": "Test Sample Chosen", "setting": "[4]; [11]", "value": 12},
      {"measurement": "Test Sample Chosen", "setting": "[4]; [12]", "value": 14},
      {"measurement": "C Chosen", "setting": "[5]; panelists choosing comparative sample C as highest bitterness, sample S1: TM1 10 ppm in grapefruit juice vs C", "value": 26},
      {"measurement": "Test Sample Chosen", "setting": "[5]; panelists choosing test sample as highest bitterness, sample S1: TM1 10 ppm in grapefruit juice vs C (grapefruit juice)", "value": 13},
      {"measurement": "C Chosen", "setting": "Bitterness of Caffeine; [8]", "value": 29},
      {"measurement": "Test Sample Chosen", "setting": "Bitterness of Caffeine; [9]", "value": 10}
    ]}
  ]
}
